Laboratory results taken from article PMC3191323 (Journal of medicinal chemistry, 2011).
One block for each molecule: values may come before it.

What was measured:
[1] = test system: P. falciparum strain W2; assay: Malaria SYBR Green I-based fluorescence assay; type: cell-based; conditions: Plasmodium falciparum, W2, 96 h, read-out: Antimalarial activity against P. falciparum IC50, W2
[2] = test system: P. falciparum strain 3D7; assay: Malaria SYBR Green I-based fluorescence assay; type: cell-based, Plasmodium falciparum
[3] = test system: P. falciparum (3D7); assay: Viable cell count; type: cell-based, Plasmodium falciparum; conditions: 2xIC50, 72 h
[4] = test system: P. falciparum; assay: Flow cytometric analysis of parasite DNA replication and nuclear division; type: cell-based, Plasmodium falciparum; conditions: 2xIC50, flow cytometry
[5] = test system: HepG2 human hepatocellular liver carcinoma cells; assay: Cytotoxicity in mammalian cells, lactate dehydrogenase assay; type: cell-based; conditions: HepG2 vs P. falciparum

SMILES: CCN(CC)CCCC(C)Nc1ccnc2cc(Cl)ccc12 (centres unmarked) [CQ, chloroquine, reference compound]
- IC50 [1]: 70 ± 1 nM
- IC50 ([2]; Plasmodium falciparum, 3D7, 96 h, read-out: Antimalarial activity against P. falciparum IC50, 3D7): 9 ± 0.04 nM

SMILES: Cl.Cl.O=C(NCCCNCCCCCCCNCCCNC(=O)NCCC(c1ccccc1)c1ccccc1)NCCC(c1ccccc1)c1ccccc1 [Compound 9]
- Cytotoxic response: decrease in viable cell numbers (% parasitemia) [3]: significant cytotoxic response

SMILES: Cl.Cl.S=C(NCCCNCCCCCCCNCCCNC(=S)NCCC(c1ccccc1)c1ccccc1)NCCC(c1ccccc1)c1ccccc1 [Compound 13]
- Cytotoxic response: decrease in viable cell numbers (% parasitemia) [3]: significant cytotoxic response

SMILES: Cl.Cl.S=C(NCCCNCCCCNCCCNC(=S)NCC(c1ccccc1)c1ccccc1)NCC(c1ccccc1)c1ccccc1 [Compound 15]
- Cytotoxic response: decrease in viable cell numbers (% parasitemia) [3]: significant cytotoxic response

SMILES: Cl.Cl.S=C(NCCCNCCCCCCCNCCCNC(=S)NCC(c1ccccc1)c1ccccc1)NCC(c1ccccc1)c1ccccc1 [Compound 16]
- Cytotoxic response: decrease in viable cell numbers (% parasitemia) [3]: significant cytotoxic response
- Effect on DNA replication and nuclear division [4]: greatest inhibitory affect on DNA replication and nuclear division

SMILES: Cl.Cl.S=C(NCCCNCCCCNCCCNC(=S)NCc1ccccc1)NCc1ccccc1 [Compound 20]
- Cytotoxic response: decrease in viable cell numbers (% parasitemia) [3]: not able to decrease viable cell numbers
- Effect on DNA replication and nuclear division [4]: not able to prevent DNA replication

SMILES: Cl.Cl.S=C(NCCCNCCCCCCNCCCNC(=S)NC(c1ccccc1)c1ccccc1)NC(c1ccccc1)c1ccccc1 [Compound 25, 1,14-Bis-{3-[1-(1′,1′-diphenylmethyl)thioureado]}-4,11-diazatetradecane Hydrochloride]
- Cytotoxic response: decrease in viable cell numbers (% parasitemia) [3]: significant cytotoxic response

SMILES: Cl.Cl.S=C(NCCCNCCCCCCNCCCNC(=S)NCc1ccccc1)NCc1ccccc1 [Compound 29, 1,14-Bis-{3-[1-(benzyl)thioureado]}-4,11-diazatetradecane Hydrochloride]
- Cytotoxic response: decrease in viable cell numbers (% parasitemia) [3]: significant cytotoxic response
- Selectivity towards the parasite compared to HepG2 [5]: > 500 fold

SMILES: Cl.Cl.O=C(NCCCNCCCCCCNCCCNC(=O)Nc1ccccc1)Nc1ccccc1 [Compound 30, 1,14-Bis-{3-[1-(phenyl)ureado]}-4,11-diazatetradecane Hydrochloride]
- Cytotoxic response: decrease in viable cell numbers (% parasitemia) [3]: significant cytotoxic response

- Antimalarial activity against P. falciparum IC50, 3D7 (values in μM) ([2]; drug sensitive strain 3D7, footnote: IC50 values in μM): not active in the μM range
SMILES: CCNC(=O)NCCCNCCCCCCNCCCNC(=O)NCC.Cl.Cl [Compound 34, 1,14-Bis-{3-[1-(ethyl)ureado]}-4,11-diazatetradecane Hydrochloride]

SMILES: Cl.Cl.O=C(NCCCNCCCCCCCNCCCNC(=O)NC(c1ccccc1)c1ccccc1)NC(c1ccccc1)c1ccccc1 [Compound 38, 1,15-Bis-{3-[1-(1′,1′-diphenylmethyl)ureado]}-4,12-diazapentadecane Hydrochloride]
- Cytotoxic response: decrease in viable cell numbers (% parasitemia) [3]: significant cytotoxic response
- Effect on DNA replication and nuclear division [4]: greatest inhibitory affect on DNA replication and nuclear division
- Selectivity towards the parasite compared to HepG2 [5]: > 500 fold

SMILES: Cl.Cl.O=C(NCCCNCCCCCCCNCCCNC(=O)NCC(c1ccccc1)c1ccccc1)NCC(c1ccccc1)c1ccccc1 [Compound 39, 1,15-Bis-{3-[1-(2′,2′-diphenylethyl)ureado]}-4,12-diazapentadecane Hydrochloride]
- Cytotoxic response: decrease in viable cell numbers (% parasitemia) [3]: significant cytotoxic response
- Effect on DNA replication and nuclear division [4]: greatest inhibitory affect on DNA replication and nuclear division
- Selectivity towards the parasite compared to HepG2 [5]: > 500 fold
